“Also recorded” adds a separate entry of the source.

The values below come from publication PMC4088988 (Bioorganic & medicinal chemistry, 2013).

The target in data set [1] is T1, GR (Homo sapiens, UniProt P04150).
T1 sequence (P04150 1-777): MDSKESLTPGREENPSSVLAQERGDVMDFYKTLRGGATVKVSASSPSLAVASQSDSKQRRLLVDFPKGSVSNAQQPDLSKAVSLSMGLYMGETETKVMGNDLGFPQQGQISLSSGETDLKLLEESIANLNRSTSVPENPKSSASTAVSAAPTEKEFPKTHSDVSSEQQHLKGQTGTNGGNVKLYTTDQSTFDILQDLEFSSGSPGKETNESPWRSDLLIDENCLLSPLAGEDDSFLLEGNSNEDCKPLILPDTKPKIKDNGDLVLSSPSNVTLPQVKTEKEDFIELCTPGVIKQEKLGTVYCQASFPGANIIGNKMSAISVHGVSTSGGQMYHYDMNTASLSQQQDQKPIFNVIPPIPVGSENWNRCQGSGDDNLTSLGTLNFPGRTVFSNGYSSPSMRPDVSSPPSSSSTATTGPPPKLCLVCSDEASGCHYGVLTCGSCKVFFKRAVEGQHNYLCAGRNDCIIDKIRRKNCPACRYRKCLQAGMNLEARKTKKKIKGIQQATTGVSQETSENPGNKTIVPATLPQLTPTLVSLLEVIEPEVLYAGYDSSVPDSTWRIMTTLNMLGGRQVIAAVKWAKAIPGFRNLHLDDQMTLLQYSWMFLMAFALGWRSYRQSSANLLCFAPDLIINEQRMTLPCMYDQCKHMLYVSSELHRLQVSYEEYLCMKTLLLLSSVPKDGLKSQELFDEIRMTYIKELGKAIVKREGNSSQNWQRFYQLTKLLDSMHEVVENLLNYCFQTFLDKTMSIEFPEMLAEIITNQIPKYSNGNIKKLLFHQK
Nature of the data set: GR Nuclear Translocation PathHunter assay. Type of data set: cell-based. The note with it: for Rank GR translocation: rank among tested compounds; for GR translocation activity: Fig. 3.

In data set [2] the test system is glucocorticoid receptor (GR). The note with it: cited from earlier work.
Data set [3] deals with mineralocorticoid receptor (MR). To be noted: cited from earlier work.
Data set [4] relates to glucocorticoid response element (GRE). Nature of the data set: Transactivation assay, GRE-luciferase reporter in HEK-293 cells. The class given is cell-based. To be noted: HEK-293 GRE-luciferase, 0.01 to 100 μg/ml, 6 h.
Data set [5] concerns NF-κB. The class given is cell-based. To be noted: C2C12 myoblasts and myotubes, Fig. 2/3.
The nature of data set [6]: Pharmacokinetics in CD1 mice, IV and PO. The class given is in vivo. The note with it: for AUC0, total, unbound / Cmax, total, unbound: Table 4.
The nature of data set [7]: Pharmacokinetics in Sprague–Dawley rats, IV and PO. Type of data set: in vivo.
The nature of data set [8]: Pharmacokinetics in beagle dogs, IV and PO. Type of data set: in vivo.
Data set [9] in a line: Metabolic stability in rat liver microsomes. The class given is in vitro ADME. To be noted: 60 min, NADPH. On the technique in general: Microsomes from liver hold many membrane-bound enzymes, among them those of drug oxidation.
The test system of data set [10] is CYP1A2. Nature of the data set: CYP1A2 induction in human hepatocytes. To be noted: three human hepatocyte donors, 1, 10, 100 μM, relative to omeprazole. The class given is in vitro ADME.
In data set [11] the test system is CYP3A4. Nature of the data set: CYP3A4 induction in human hepatocytes. The class given is in vitro ADME. The note with it: three human hepatocyte donors, 1, 10, 100 μM, % of positive control rifampin.
Data set [12] can be described thus: Ames test. The note with it: Positive/negative. (In the Ames test, an excess of revertant colonies over the control signals mutagenicity.)
A short description of data set [13]: Micronucleus test. The note with it: Positive/negative.
A short description of data set [14]: Metabolite identification in human hepatocytes. Type of data set: in vitro ADME. The note with it: 10 μM, 2 and 4 h.
Data set [15] in a line: Metabolite identification in monkey hepatocytes. Type of data set: in vitro ADME. The note with it: 10 μM, 2 and 4 h.
Data set [16] in a line: Metabolite identification in dog hepatocytes. Type of data set: in vitro ADME. To be noted: 10 μM, 2 and 4 h.
The nature of data set [17]: Metabolite identification in rat hepatocytes. The class given is in vitro ADME. The note with it: 10 μM, 2 and 4 h.
The conditions of data set [18]: single administration, cited from earlier work.
Setting [19] is: CD1 mice, IV 10 mg/kg, 10 mg/kg.

In the case of `C[C@]12CCC(=O)C=C1CC[C@@H]1C2=CC[C@@]2(C)[C@H]1CC[C@]2(O)C(=O)CO` [VBP1], the “Rank GR translocation” value in data set [1] was found to be 6. Also, the “binding to the GR” value in data set [2] is “relatively high affinity binding”. For the same compound, in data set [3], the “binding to the MR” value is listed as “relatively high affinity binding”.

`C[C@]12C=CC(=O)C=C1CC[C@@H]1[C@@H]2C(=O)C[C@@]2(C)[C@H]1CC[C@]2(O)C(=O)CO` [Prednisone, reference compound]: the “GRE-dependent gene transcription (luciferase)” value in data set [4] was “induced luciferase expression”.

With `C[C@]12C=CC(=O)C=C1CC[C@@H]1[C@@H]2[C@@H](O)C[C@@]2(C)[C@H]1CC[C@]2(O)C(=O)CO` [prednisolone, reference compound], the “GRE-dependent gene transcription (luciferase)” value in [4] was “significant dose-dependent response”.

For `CC(=O)OCC(=O)[C@H]1[C@H](C)C[C@H]2[C@@H]3CCC4=CC(=O)C=C[C@]4(C)C3=CC[C@@]21C` [VBP7], the “NF-κB inhibition activity” value in data set [5] is given as “high activities”. In [1], the “GR translocation activity” value is given as “high activities” and the “Rank GR translocation” value was found to be 7.

In the case of `C[C@@H]1C[C@H]2[C@@H]3CCC4=CC(=O)C=C[C@]4(C)C3=CC[C@]2(C)[C@@]1(O)C(=O)CO` [VBP15], the “NF-κB inhibition activity” value in data set [5] is on record as “high activities”. In addition, in data set [1], the “GR translocation activity” value is “high activities”. The “GRE-dependent gene transcription (luciferase)” value in data set [4] is “lack of transactivation properties; also recorded: lacks GRE-mediated transcriptional activity”. Moreover, the Clobs in data set [6] (setting [19]) is given as 18.8 (IV) mL/min/kg. Besides, the Vssobs in [6] (setting [19]) is given as 0.757 (IV) L/kg. For the same compound, the “AUC0, total, unbound” value in [6] (Mouse 10 mpk IV) is 8842 (IV) h ng/mL; in data set [6] (Mouse 50 mpk PO), 32932 (PO) h ng/mL; in [7] (Rat 10 mpk IV), 8339 (IV) h ng/mL; in data set [7] (Rat 50 mpk PO), 19937 (PO) h ng/mL; in [8] (Dog 10 mpk IV) it was 6791 (IV) h ng/mL; in data set [8] (Dog 30 mpk PO), 10844 (PO) h ng/mL. The “Cmax, total, unbound” value in data set [6] (Mouse 10 mpk IV) was 11167 (IV) ng/mL; in data set [6] (Mouse 50 mpk PO, 50 mg/kg) it was 6787 (PO) ng/mL; in data set [7] (Rat 50 mpk PO, 50 mg/kg), 2543 (PO) ng/mL; in data set [8] (Dog 30 mpk PO, 30 mg/kg) it was 814 (PO) ng/mL. Further, the “Stability–microsomes, remaining at 1 h” value in [9] is “Rat = 35.4%”. Further, in data set [10], the CYP1A2 induction result was “no induction”. The CYP3A4 induction in data set [11] is recorded as 24–42%. For the same compound, in data set [12], the Ames test entry is listed as “Negative”. Also, the Micronucleus test result in [13] is reported as “Negative”. Also, the “number of metabolites identified” value is given as “Four” in data set [14], “Four” in data set [15], 3 in data set [16] and 5 in [17].

With `CC(=O)OCC(=O)[C@@]1(O)CC[C@@H]2[C@H]3CCC4=CC(=O)CC[C@]4(C)C3=CC[C@@]21C` [anecortave acetate, [2-[(8R,10S,13S,14R,17R)-17-hydroxy-10,13-dimethyl-3-oxo-2,6,7,8,12,14,15,16-octahydro-1H-cyclopenta[a]phenanthren-17-yl]-2-oxo-ethyl] acetate, reference compound], in [18] (best dose), the “reduction in IOP” value is reported as 31%. Moreover, in data set [18], the “mean duration of IOP benefit” value is 56 days. Further, in data set [2], the “binding to the GR” value is “relatively high affinity binding”. Further, in data set [3], the “binding to the MR” value was “relatively high affinity binding”.

As to `C[C@@H]1C[C@H]2[C@@H]3CCC4=CC(=O)C=C[C@]4(C)C3=CC[C@]2(C)[C@H]1C(=O)CO` [VBP6], in data set [5], the “NF-κB inhibition activity” value is reported as “high activities”. For the same compound, the “GR translocation activity” value in data set [1] is reported as “high activities”. In data set [1], the “Rank GR translocation” value was 4. Also, the AUC/D was determined as 345 ng·h/mL in [6] (CD1 mice, IV 10 mg/kg) and 440 ng·h/mL in data set [6] (CD1 mice, PO 50 mg/kg, 30% Labrafil).
